{
  "source": "patent US8959984B2",
  "about": "“Proteome-wide quantification of small molecule binding to cellular target proteins” (priority 2007, dated 2015)",
  "key": {"CK1d": {"molecular_target": "CK1d (Homo sapiens, UniProt P48730)", "sequence (P48730 whole entry)": "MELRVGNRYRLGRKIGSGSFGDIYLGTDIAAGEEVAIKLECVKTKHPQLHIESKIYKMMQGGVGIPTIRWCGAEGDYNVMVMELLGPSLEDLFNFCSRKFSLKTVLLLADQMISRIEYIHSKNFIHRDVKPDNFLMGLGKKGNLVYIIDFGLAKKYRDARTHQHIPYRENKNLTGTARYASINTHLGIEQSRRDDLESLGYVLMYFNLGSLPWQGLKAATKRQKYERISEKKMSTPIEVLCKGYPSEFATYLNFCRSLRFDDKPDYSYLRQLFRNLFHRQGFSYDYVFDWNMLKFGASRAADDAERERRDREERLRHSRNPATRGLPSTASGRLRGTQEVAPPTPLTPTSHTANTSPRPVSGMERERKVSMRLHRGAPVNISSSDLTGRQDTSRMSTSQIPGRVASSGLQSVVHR", "test": "binding to immobilized V16742 (IVA1/IVA2, HeLa lysate, MS)"}, "EphB4": {"molecular_target": "EphB4 (Homo sapiens, UniProt P54760)", "sequence (P54760 16-987)": "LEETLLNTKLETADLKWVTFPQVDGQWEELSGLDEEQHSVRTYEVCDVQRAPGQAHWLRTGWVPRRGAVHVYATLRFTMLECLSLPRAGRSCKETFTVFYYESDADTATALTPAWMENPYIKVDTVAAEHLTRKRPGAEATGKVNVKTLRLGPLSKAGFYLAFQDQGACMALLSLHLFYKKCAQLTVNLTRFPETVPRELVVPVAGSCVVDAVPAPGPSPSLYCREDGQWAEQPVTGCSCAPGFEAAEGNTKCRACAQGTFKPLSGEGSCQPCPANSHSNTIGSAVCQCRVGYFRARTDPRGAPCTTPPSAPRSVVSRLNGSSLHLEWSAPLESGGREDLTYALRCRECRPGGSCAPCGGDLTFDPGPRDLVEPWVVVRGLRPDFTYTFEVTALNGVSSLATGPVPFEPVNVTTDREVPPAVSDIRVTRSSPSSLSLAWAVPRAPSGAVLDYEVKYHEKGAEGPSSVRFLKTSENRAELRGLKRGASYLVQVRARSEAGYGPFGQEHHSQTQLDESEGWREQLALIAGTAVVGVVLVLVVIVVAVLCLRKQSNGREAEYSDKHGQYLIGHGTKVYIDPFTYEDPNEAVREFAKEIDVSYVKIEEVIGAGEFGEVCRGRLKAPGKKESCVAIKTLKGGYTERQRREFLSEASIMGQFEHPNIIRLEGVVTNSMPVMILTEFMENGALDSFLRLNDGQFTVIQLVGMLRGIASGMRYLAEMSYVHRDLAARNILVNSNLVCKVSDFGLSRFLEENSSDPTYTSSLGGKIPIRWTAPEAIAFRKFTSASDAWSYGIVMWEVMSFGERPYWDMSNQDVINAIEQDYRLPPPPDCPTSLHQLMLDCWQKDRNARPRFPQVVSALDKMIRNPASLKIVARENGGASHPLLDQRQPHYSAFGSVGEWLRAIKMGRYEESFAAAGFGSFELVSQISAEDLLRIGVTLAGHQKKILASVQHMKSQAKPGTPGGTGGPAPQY", "test": "binding to immobilized V16742 (IVA1/IVA2, HeLa lysate, MS)"}, "ADK (IPI00290279)": {"molecular_target": "T1, ADK (IPI00290279) (Homo sapiens, UniProt P55263)", "T1 construct": "endogenous in cells; host or cells: HeLa S3 cell lysate", "T1 sequence (P55263 whole entry)": "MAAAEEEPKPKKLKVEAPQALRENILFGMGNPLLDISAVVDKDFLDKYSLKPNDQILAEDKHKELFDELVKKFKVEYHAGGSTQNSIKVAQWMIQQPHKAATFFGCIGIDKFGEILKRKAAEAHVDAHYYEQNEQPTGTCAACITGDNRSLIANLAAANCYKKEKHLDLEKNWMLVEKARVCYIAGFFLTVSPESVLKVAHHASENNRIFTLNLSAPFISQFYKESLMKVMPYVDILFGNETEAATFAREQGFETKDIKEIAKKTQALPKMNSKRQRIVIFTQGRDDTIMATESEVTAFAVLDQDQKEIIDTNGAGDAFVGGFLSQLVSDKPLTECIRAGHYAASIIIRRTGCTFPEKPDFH", "test": "binding to VI16742 beads (HeLa lysate, SILAC MS)"}, "ERCC2 (IPI00029728)": {"test_system": "ERCC2 (IPI00029728)", "test": "binding to VI16742 beads (HeLa lysate, SILAC MS)", "set-up": "species or system human", "description": "(§1) In an alternative implementation of the chemical proteomic approach according to the invention, the broadly-selective pyrido[2,3-d]pyrimidine-based kinase inhibitor VI16742 has been used for affinity capture (FIG. 10a). […] As shown by gene ontology analysis, the corresponding molecular functions were highly over-represented in proteins specifically retained by the inhibitor resin (FIG. 10b)."}, "WDR68 (IPI00006754)": {"test_system": "WDR68 (IPI00006754)", "test": "binding to VI16742 beads (HeLa lysate, SILAC MS)", "set-up": "species or system human", "description": "as §1"}, "LIMS1 (IPI00788612)": {"test_system": "LIMS1 (IPI00788612)", "test": "binding to VI16742 beads (HeLa lysate, SILAC MS)", "set-up": "species or system human", "description": "as §1"}, "CCNK (IPI00783214)": {"test_system": "CCNK (IPI00783214)", "test": "binding to VI16742 beads (HeLa lysate, SILAC MS)", "set-up": "species or system human", "description": "as §1"}, "CCNH (IPI00021305)": {"test_system": "CCNH (IPI00021305)", "test": "binding to VI16742 beads (HeLa lysate, SILAC MS)", "set-up": "species or system human", "description": "as §1"}, "RSU1 (IPI00847168)": {"test_system": "RSU1 (IPI00847168)", "test": "binding to VI16742 beads (HeLa lysate, SILAC MS)", "set-up": "species or system human", "description": "as §1"}, "PARVA (IPI00018963)": {"test_system": "PARVA (IPI00018963)", "test": "binding to VI16742 beads (HeLa lysate, SILAC MS)", "set-up": "species or system human", "description": "as §1"}, "RPL27A": {"molecular_target": "RPL27A (Homo sapiens, UniProt P46776)"}, "BLMH": {"molecular_target": "T2, BLMH (Homo sapiens, UniProt Q13867)", "T2 construct": "endogenous in cells; host or cells: HeLa S3", "T2 sequence (Q13867 1-455)": "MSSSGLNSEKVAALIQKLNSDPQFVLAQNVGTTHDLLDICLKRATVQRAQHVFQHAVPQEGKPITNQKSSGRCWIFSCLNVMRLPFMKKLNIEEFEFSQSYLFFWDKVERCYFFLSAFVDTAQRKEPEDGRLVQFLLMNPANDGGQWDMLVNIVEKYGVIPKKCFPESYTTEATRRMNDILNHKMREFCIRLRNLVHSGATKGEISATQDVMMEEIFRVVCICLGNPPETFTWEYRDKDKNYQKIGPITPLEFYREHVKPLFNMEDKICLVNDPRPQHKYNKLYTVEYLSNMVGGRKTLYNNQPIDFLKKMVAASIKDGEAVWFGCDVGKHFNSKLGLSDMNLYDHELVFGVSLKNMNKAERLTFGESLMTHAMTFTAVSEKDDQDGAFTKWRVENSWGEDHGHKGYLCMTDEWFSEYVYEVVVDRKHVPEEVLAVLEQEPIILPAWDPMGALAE", "test": "gefitinib competition against AX14596 beads (HeLa lysate, SILAC MS)", "assay_type": "binding"}, "[1]": {"conditions": "control beads vs first incubation"}},
  "note": "Read-outs that look alike come from different tables or passages of the source.",
  "data": [
    {"smiles": "CC(C)n1c(=O)ccc2cnc(Nc3ccc(OCCN)cc3)nc21", "note": "[compound 16742]", "values": [
      {"measurement": "Percent bound at 1.87 μM 16742 conc", "setting": "CK1d; EXPERIMENT 1", "value": 16.07, "unit": "%"},
      {"measurement": "Percent bound at 8.74 μM 16742 conc", "setting": "CK1d; EXPERIMENT 1", "value": 57.03, "unit": "%"},
      {"measurement": "Percent bound at 52 μM 16742 conc", "setting": "CK1d; EXPERIMENT 1", "value": 87.27, "unit": "%"},
      {"measurement": "Kd", "setting": "CK1d; EXPERIMENT 1, read-out: Kd", "value": 7.38, "unit": "µM"},
      {"measurement": "Percent bound at 1.87 μM 16742 conc", "setting": "CK1d; EXPERIMENT 2", "value": 19.73, "unit": "%"},
      {"measurement": "Percent bound at 8.74 μM 16742 conc", "setting": "CK1d; EXPERIMENT 2", "value": 70.68, "unit": "%"},
      {"measurement": "Percent bound at 52 μM 16742 conc", "setting": "CK1d; EXPERIMENT 2", "value": 87.40, "unit": "%"},
      {"measurement": "Kd", "setting": "CK1d; EXPERIMENT 2, read-out: Kd", "value": 5.07, "unit": "µM"},
      {"measurement": "Kd", "setting": "CK1d; read-out: Kd Avg", "value": 6.23, "unit": "µM"},
      {"measurement": "Percent bound at 1.87 μM 16742 conc", "setting": "EphB4; EXPERIMENT 1", "value": 3.95, "unit": "%"},
      {"measurement": "Percent bound at 8.74 μM 16742 conc", "setting": "EphB4; EXPERIMENT 1", "value": 18.14, "unit": "%"},
      {"measurement": "Percent bound at 52 μM 16742 conc", "setting": "EphB4; EXPERIMENT 1", "value": 61.05, "unit": "%"},
      {"measurement": "Kd", "setting": "EphB4; EXPERIMENT 1, read-out: Kd", "value": 35.2, "unit": "µM"},
      {"measurement": "Percent bound at 1.87 μM 16742 conc", "setting": "EphB4; EXPERIMENT 2", "value": 2.71, "unit": "%"},
      {"measurement": "Percent bound at 8.74 μM 16742 conc", "setting": "EphB4; EXPERIMENT 2", "value": 12.85, "unit": "%"},
      {"measurement": "Percent bound at 52 μM 16742 conc", "setting": "EphB4; EXPERIMENT 2", "value": 50.80, "unit": "%"},
      {"measurement": "Kd", "setting": "EphB4; EXPERIMENT 2, read-out: Kd", "value": 52.1, "unit": "µM"},
      {"measurement": "Kd", "setting": "EphB4; read-out: Kd Avg", "value": 43.6, "unit": "µM"}
    ]},
    {"smiles": "CC(C)n1c(=O)ccc2cnc(Nc3ccc(OCCN)cc3)nc21", "note": "[V16742]", "values": [
      {"measurement": "r (5 h/2.5 h INC. TIME)", "setting": "ADK (IPI00290279); 5 h vs 2.5 h incubation time", "value": 1.63},
      {"measurement": "rAVERAGE (CTRL/1 INC)", "setting": "ADK (IPI00290279); [1]", "value": 0.05},
      {"measurement": "Ki", "setting": "ADK (IPI00290279); immobilized VI16742", "value": 94.2, "unit": "µM"},
      {"measurement": "rAVERAGE (2 INC/1 INC)", "setting": "ADK (IPI00290279); second vs first incubation", "value": 0.64},
      {"measurement": "rAVERAGE (CTRL/1 INC)", "setting": "ERCC2 (IPI00029728); [1]", "value": 0.17},
      {"measurement": "Ki", "setting": "ERCC2 (IPI00029728); immobilized VI16742", "value": 118, "unit": "µM"},
      {"measurement": "rAVERAGE (2 INC/1 INC)", "setting": "ERCC2 (IPI00029728); second vs first incubation", "value": 0.69},
      {"measurement": "r (3 MG/1 MG LYSATE)", "setting": "WDR68 (IPI00006754); 3 mg vs 1 mg lysate", "value": 2.58},
      {"measurement": "r (5 h/2.5 h INC. TIME)", "setting": "WDR68 (IPI00006754); 5 h vs 2.5 h incubation time", "value": 1.31},
      {"measurement": "rAVERAGE (CTRL/1 INC)", "setting": "WDR68 (IPI00006754); [1]", "value": 0.17},
      {"measurement": "Ki", "setting": "WDR68 (IPI00006754); immobilized VI16742", "value": 249, "unit": "µM"},
      {"measurement": "rAVERAGE (2 INC/1 INC)", "setting": "WDR68 (IPI00006754); second vs first incubation", "value": 0.83},
      {"measurement": "rAVERAGE (CTRL/1 INC)", "setting": "LIMS1 (IPI00788612); [1]", "value": 0.04},
      {"measurement": "Ki", "setting": "LIMS1 (IPI00788612); immobilized VI16742", "value": 143, "unit": "µM"},
      {"measurement": "rAVERAGE (2 INC/1 INC)", "setting": "LIMS1 (IPI00788612); second vs first incubation", "value": 0.73},
      {"measurement": "r (3 MG/1 MG LYSATE)", "setting": "CCNK (IPI00783214); 3 mg vs 1 mg lysate", "value": 3.84},
      {"measurement": "r (5 h/2.5 h INC. TIME)", "setting": "CCNK (IPI00783214); 5 h vs 2.5 h incubation time", "value": 1.27},
      {"measurement": "rAVERAGE (CTRL/1 INC)", "setting": "CCNK (IPI00783214); [1]", "value": 0.12},
      {"measurement": "Ki", "setting": "CCNK (IPI00783214); immobilized VI16742", "value": 120, "unit": "µM"},
      {"measurement": "rAVERAGE (2 INC/1 INC)", "setting": "CCNK (IPI00783214); second vs first incubation", "value": 0.70},
      {"measurement": "rAVERAGE (CTRL/1 INC)", "setting": "CCNH (IPI00021305); [1]", "value": 0.05},
      {"measurement": "Ki", "setting": "CCNH (IPI00021305); immobilized VI16742", "value": 96.9, "unit": "µM"},
      {"measurement": "rAVERAGE (2 INC/1 INC)", "setting": "CCNH (IPI00021305); second vs first incubation", "value": 0.65},
      {"measurement": "r (5 h/2.5 h INC. TIME)", "setting": "RSU1 (IPI00847168); 5 h vs 2.5 h incubation time", "value": 1.34},
      {"measurement": "rAVERAGE (CTRL/1 INC)", "setting": "RSU1 (IPI00847168); [1]", "value": 0.07},
      {"measurement": "Ki", "setting": "RSU1 (IPI00847168); immobilized VI16742", "value": 216, "unit": "µM"},
      {"measurement": "rAVERAGE (2 INC/1 INC)", "setting": "RSU1 (IPI00847168); second vs first incubation", "value": 0.81},
      {"measurement": "rAVERAGE (CTRL/1 INC)", "setting": "PARVA (IPI00018963); [1]", "value": 0.06},
      {"measurement": "Ki", "setting": "PARVA (IPI00018963); immobilized VI16742", "value": 155, "unit": "µM"},
      {"measurement": "rAVERAGE (2 INC/1 INC)", "setting": "PARVA (IPI00018963); second vs first incubation", "value": 0.75}
    ]},
    {"smiles": "COc1cc2ncnc(Nc3ccc(F)c(Cl)c3)c2cc1OCCCN1CCOCC1", "note": "[gefitinib]", "values": [
      {"measurement": "rAVERAGE (10 nM/0 nM Gef.)", "setting": "RPL27A", "value": 0.87},
      {"measurement": "rAVERAGE (100 nM/0 nM Gef.)", "setting": "RPL27A", "value": 1.05},
      {"measurement": "rAVERAGE (1000 nM/0 nM Gef.)", "setting": "RPL27A", "value": 0.81},
      {"measurement": "rAVERAGE (10000 nM/0 nM Gef.)", "setting": "RPL27A", "value": 1.03},
      {"measurement": "IC50", "setting": "BLMH", "value": 0.223, "unit": "µM"},
      {"measurement": "rAVERAGE (10 nM/0 nM Gef.)", "setting": "BLMH", "value": 0.82},
      {"measurement": "rAVERAGE (100 nM/0 nM Gef.)", "setting": "BLMH", "value": 0.53},
      {"measurement": "rAVERAGE (1000 nM/0 nM Gef.)", "setting": "BLMH", "value": 0.43},
      {"measurement": "rAVERAGE (10000 nM/0 nM Gef.)", "setting": "BLMH", "value": 0.11},
      {"measurement": "Ki", "setting": "BLMH; read-out: Ki (Gef)", "value": 0.0779, "unit": "µM"}
    ]}
  ]
}
